Laboratory results published in ChEMBL document CHEMBL2074556, “Possible involvement of P-glycoprotein in the biliary excretion of grepafloxacin” (Clin Exp Pharmacol Physiol, 2002).
Blank lines part the entries; values can stand above or below the compound they belong to.

Tests used:
[1] = target: T1, ATP-dependent translocase ABCB1 (Mus musculus, UniProt P21447); experiment: TP_TRANSPORTER: increase in Doxorubicin intracellular accumulation (Doxorubicin: 5 uM, GPFX: 500 uM) in P388/ADR cells; assay type: functional, cell-based
T1 sequence (P21447 whole entry): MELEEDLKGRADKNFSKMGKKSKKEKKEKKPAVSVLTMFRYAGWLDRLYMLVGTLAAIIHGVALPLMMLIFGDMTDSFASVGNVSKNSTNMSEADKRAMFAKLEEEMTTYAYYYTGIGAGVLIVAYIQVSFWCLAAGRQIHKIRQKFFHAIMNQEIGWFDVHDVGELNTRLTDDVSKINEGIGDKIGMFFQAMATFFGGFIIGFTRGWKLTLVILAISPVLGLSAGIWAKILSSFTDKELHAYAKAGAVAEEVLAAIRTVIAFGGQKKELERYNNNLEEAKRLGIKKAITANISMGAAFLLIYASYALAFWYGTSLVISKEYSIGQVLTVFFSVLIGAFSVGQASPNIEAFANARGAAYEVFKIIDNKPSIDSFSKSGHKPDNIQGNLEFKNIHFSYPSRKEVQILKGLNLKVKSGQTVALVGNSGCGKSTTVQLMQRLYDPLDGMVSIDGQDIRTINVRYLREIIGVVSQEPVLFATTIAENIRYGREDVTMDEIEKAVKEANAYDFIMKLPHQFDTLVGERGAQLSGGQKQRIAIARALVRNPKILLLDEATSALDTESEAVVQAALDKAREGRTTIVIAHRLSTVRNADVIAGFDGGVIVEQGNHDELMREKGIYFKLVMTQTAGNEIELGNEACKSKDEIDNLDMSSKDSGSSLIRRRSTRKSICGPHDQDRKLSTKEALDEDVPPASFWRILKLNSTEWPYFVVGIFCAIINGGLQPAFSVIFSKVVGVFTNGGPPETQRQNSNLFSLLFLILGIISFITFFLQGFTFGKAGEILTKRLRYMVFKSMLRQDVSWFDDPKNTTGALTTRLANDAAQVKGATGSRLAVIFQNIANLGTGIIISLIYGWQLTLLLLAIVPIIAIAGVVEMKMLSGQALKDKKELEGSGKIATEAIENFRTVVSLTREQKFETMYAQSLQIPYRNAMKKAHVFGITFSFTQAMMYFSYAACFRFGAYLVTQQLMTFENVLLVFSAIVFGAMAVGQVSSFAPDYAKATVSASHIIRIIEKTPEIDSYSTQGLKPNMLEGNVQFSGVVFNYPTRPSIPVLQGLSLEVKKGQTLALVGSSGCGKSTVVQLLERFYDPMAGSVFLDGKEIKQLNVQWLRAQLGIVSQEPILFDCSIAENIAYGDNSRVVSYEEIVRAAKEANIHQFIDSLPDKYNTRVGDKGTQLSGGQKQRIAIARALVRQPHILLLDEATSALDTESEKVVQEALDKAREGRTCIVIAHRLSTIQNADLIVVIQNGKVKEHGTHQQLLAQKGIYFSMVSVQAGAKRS

[2] = target: Multidrug resistance protein 1a (Rattus norvegicus) (UniProt Q6PSM0); experiment: TP_TRANSPORTER: […] in biliary excretion by Doxorubicin, Cyclosporin A and Erythromycin in vivo Wistar rat; assay type: functional, organism-based; details: Bile
Sequence of Multidrug resistance protein 1a (Rattus norvegicus) (Q6PSM0 as listed by the source): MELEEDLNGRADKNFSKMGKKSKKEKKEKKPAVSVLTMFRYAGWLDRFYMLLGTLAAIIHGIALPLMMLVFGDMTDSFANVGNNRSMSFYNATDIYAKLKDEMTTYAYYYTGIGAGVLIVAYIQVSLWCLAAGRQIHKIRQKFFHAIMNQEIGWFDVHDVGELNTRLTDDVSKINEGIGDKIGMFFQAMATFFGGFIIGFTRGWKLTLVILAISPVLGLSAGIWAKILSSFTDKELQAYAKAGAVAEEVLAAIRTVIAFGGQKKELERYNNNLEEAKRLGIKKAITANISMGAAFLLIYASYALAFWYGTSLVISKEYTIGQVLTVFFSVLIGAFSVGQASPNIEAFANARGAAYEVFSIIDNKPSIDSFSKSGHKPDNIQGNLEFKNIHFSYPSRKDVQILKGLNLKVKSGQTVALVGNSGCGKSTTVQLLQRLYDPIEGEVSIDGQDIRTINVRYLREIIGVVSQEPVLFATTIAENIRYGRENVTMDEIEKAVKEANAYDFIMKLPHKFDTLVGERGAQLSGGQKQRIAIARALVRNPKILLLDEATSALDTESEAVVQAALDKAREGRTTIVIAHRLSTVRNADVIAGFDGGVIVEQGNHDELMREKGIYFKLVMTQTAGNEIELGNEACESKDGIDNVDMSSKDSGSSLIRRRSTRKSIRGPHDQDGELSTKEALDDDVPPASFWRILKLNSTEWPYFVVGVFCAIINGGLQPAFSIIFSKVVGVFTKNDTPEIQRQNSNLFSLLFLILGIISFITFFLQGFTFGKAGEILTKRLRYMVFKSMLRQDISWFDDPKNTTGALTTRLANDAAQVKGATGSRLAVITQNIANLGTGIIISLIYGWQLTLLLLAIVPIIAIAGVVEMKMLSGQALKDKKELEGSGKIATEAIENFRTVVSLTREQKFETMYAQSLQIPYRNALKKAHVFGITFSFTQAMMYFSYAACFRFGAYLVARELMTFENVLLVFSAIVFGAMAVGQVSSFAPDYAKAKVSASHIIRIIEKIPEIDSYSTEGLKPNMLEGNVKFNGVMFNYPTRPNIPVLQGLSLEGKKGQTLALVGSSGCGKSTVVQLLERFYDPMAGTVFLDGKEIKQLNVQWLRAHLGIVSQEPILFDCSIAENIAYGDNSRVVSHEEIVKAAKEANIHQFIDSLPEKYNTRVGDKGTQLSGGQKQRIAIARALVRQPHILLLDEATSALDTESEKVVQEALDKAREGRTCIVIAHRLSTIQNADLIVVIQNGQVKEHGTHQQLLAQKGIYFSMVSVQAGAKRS

[3] = target: T1, ATP-dependent translocase ABCB1; experiment: TP_TRANSPORTER: increase in Doxorubicin intracellular accumulation (Doxorubicin: 5 uM, Norfloxacin: 500 uM) in P388/ADR cells; assay type: functional, cell-based
[4] = target: T1, ATP-dependent translocase ABCB1; experiment: TP_TRANSPORTER: increase in Doxorubicin intracellular accumulation (Doxorubicin: 5 uM, SPFX: 500 uM) in P388/ADR cells; assay type: functional, cell-based
[5] = target: T1, ATP-dependent translocase ABCB1; experiment: TP_TRANSPORTER: increase in Doxorubicin intracellular accumulation (Doxorubicin: 5 uM, Tosufloxacin: 500 uM) in P388/ADR cells; assay type: functional, cell-based

- Activity [2]: substrate [+]
Compound: Cc1c(F)c(N2CCNC(C)C2)cc2c1c(=O)c(C(=O)O)cn2C1CC1 (stereo not given) [GREPAFLOXACIN]
- Activity [1]: inhibitor [(at a rough estimate) 140 % of control]

Compound: CCn1cc(C(=O)O)c(=O)c2cc(F)c(N3CCNCC3)cc21 [NORFLOXACIN]
- Activity [3]: inhibitor [(at a rough estimate) 290 % of control]

Compound: C[C@@H]1CN(c2c(F)c(N)c3c(=O)c(C(=O)O)cn(C4CC4)c3c2F)C[C@H](C)N1 [SPARFLOXACIN]
- Activity [4]: inhibitor [(at a rough estimate) 140 % of control]

Compound: NC1CCN(c2nc3c(cc2F)c(=O)c(C(=O)O)cn3-c2ccc(F)cc2F)C1 (stereo not given) [TOSUFLOXACIN]
- Activity [5]: inhibitor [(at a rough estimate) 200 % of control]
